Source: ChEMBL document CHEMBL1132050, “Synthesis of novel analogues of the delta opioid ligand SNC-80 using AlCl3-promoted aminolysis” (Bioorg Med Chem Lett, 1999)

Assays:
Cricetinae gen. sp. [1] = assay: Maximum efficacy in the Hamster vas deferens (HVD) functional assay was determined […] at a compound concentration of 10E-10 to 10E-5
Mus musculus [2] = assay: Antinociceptive activity against acetic acid induced abdominal constriction model in mice by sc administration; assay type: functional; details: Abdomen
Mus musculus [3] = assay: Maximum efficacy in Mouse vas deferens (MVD) functional assay was determined […] at a compound concentration of 10E-10 to 10E-5
Mus musculus [4] = assay: Potency in the Mouse vas deferens (MVD) functional assay was determined […]
[5] = molecular target: T1, Delta-type opioid receptor (Homo sapiens, UniProt P41143); assay: Inhibition of binding of [3H]- -naltrindole (0.15 nM) to membranes from CHO cells expressing Opioid receptor delta 1; assay type: cell membranes
T1 sequence (P41143 whole entry): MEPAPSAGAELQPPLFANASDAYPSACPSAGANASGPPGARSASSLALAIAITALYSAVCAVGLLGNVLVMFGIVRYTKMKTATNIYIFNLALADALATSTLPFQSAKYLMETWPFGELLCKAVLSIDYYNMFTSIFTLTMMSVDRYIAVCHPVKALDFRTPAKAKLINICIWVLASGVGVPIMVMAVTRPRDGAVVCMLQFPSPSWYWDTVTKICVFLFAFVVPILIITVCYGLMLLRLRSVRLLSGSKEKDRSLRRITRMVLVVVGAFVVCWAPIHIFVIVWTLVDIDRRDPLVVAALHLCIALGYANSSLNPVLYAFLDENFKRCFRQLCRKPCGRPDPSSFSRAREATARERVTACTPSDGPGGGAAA

[6] = molecular target: Kappa-type opioid receptor (Cavia porcellus, UniProt P41144); assay: Binding affinity towards Opioid receptor kappa 1 using [3H]- U-69,593 (1.5 nM) as radioligand in guinea pig brain membranes; assay type: cell membranes, Membrane
Sequence of Kappa-type opioid receptor (P41144 whole entry): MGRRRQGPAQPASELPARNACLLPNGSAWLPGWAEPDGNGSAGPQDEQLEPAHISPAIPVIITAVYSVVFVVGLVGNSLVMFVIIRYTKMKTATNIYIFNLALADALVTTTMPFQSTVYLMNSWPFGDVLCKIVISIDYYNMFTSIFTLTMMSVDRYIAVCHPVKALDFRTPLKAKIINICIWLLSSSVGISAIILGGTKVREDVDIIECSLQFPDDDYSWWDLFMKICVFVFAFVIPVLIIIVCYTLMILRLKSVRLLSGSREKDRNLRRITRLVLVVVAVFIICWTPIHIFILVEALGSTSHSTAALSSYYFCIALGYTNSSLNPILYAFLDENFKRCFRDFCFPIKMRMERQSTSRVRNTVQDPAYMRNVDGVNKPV

Mu-type opioid receptor = Mu-type opioid receptor (Rattus norvegicus, UniProt P33535); assay: Binding affinity towards mu opioid receptor using [3H]- -DAMGO (1.5 nM) as radioligand in rat brain membranes; assay type: cell membranes
Sequence of Mu-type opioid receptor (P33535 whole entry): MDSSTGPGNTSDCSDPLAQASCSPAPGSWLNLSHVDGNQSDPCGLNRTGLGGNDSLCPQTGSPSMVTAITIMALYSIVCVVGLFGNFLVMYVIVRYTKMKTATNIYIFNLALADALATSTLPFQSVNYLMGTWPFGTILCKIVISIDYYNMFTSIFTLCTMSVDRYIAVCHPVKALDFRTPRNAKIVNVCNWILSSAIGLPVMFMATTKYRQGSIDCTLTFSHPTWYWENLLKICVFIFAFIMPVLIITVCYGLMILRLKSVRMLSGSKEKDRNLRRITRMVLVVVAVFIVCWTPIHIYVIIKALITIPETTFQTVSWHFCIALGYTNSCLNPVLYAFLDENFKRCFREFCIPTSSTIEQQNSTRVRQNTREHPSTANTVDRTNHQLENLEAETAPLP

Cricetinae gen. sp. [7] = assay: Potency in the Hamster vas deferens (HVD) functional assay was determined […]
[8] = molecular target: T1, Delta-type opioid receptor; assay: Compound was tested for inhibition of binding of [3H]- -naltrindole (0.15 nM) to membranes from CHO cells expressing human delta opioid receptor; assay type: cell membranes

| SMILES | Efficacy (Cricetinae gen. sp. [1]) | ED50 (Mus musculus [2]) | Efficacy (Mus musculus [3]) | IC50 (Mus musculus [4]) | IC50 [5] | IC50 [6] | IC50 (Mu-type opioid receptor) | IC50 (Cricetinae gen. sp. [7]) | IC50 [8] |
| --- | --- | --- | --- | --- | --- | --- | --- | --- | --- |
| CCN(CC)C(=O)c1ccc(C(c2ccccc2)N2CCN(Cc3ccc4c(c3)OCO4)CC2)cc1 (centres undefined) | 52% | > 200 µmol/kg | 98% | 100 nM | 1.4 nM | 3900 nM | > 10000 nM | 2510 nM |  |
| CCN(CC)C(=O)c1ccc(C(c2ccccc2)N2CCN(CC3CCc4ccccc4C3)CC2)cc1 (centres undefined) |  |  |  |  | 1.8 nM |  | 6240 nM |  |  |
| CCN(CC)C(=O)c1ccc(C(c2ccccc2)N2CC(C)NC(C)C2)cc1 (centres undefined) |  |  |  |  | 42 nM |  |  |  |  |
| CCN(CC)C(=O)c1ccc(C(c2ccccc2)N2CCNC3CCCCC32)cc1 (centres undefined) |  |  |  |  | 29 nM |  |  |  |  |
| CCN(CC)C(=O)c1ccc(C(c2ccccc2)N2CCN(CCO)CC2)cc1 (centres undefined) |  |  |  |  | 5.5 nM |  | > 10000 nM |  |  |
| CCCN1CCN(C(c2ccccc2)c2ccc(C(=O)N(CC)CC)cc2)CC1 (centres undefined) |  |  |  |  | 11.4 nM |  | > 10000 nM |  |  |
| C=CCN1CCCN(C(c2ccccc2)c2ccc(C(=O)N(CC)CC)cc2)CC1 (centres undefined) |  |  |  |  |  |  |  |  | 13 nM |
| CCN(CC)C(=O)c1ccc(C(NCC(C)(C)N)c2ccccc2)cc1 (centres undefined) |  |  |  |  | 120 nM |  |  |  |  |
| CCN(CC)C(=O)c1ccc(C(c2ccccc2)N2CCN(C3CCCC3)CC2)cc1 (centres undefined) |  |  |  |  | 5.8 nM |  |  |  |  |
| CCN(CC)C(=O)c1ccc(C(c2ccccc2)N(CC)CCN(C)C)cc1 (centres undefined) |  |  |  |  | 845 nM |  |  |  |  |
| CCN(CC)C(=O)c1ccc(C(c2ccccc2)N(CCN(C)C)Cc2ccccc2)cc1 (centres undefined) | 13% | 48.4 µmol/kg | 7% | > 10000 nM | 70 nM | 483 nM | > 10000 nM | > 10000 nM |  |
| CCN(CC)C(=O)c1ccc([C@H](c2ccccc2)N2C[C@@H](C)N(Cc3ccc4c(c3)OCO4)C[C@@H]2C)cc1 | 68% | > 200 µmol/kg | 100% | 39.8 nM | 0.54 nM |  | 702 nM | 1260 nM |  |
| CCN(CC)C(=O)c1ccc(C(c2ccccc2)N2CCN(c3ccc(O)cc3)CC2)cc1 (centres undefined) |  |  |  |  | 10 nM |  | > 10000 nM |  |  |
| C=CCN1CCN(C(c2ccccc2)c2ccc(C(=O)N(CC)CC)cc2)CC1 (stereo in doubt; 2) | 4% | 145 µmol/kg | 87% | 631 nM | 4.1 nM | 1990 nM | > 10000 nM | > 10000 nM |  |
| C=CCN1CCN(C(c2ccccc2)c2ccc(C(=O)N(CC)CC)cc2)CC1 (stereo in doubt; 6 {1} (2)) |  |  |  |  | 8 nM |  |  |  |  |
| C=CCN1CCN(C(c2ccccc2)c2ccc(C(=O)N(CC)CC)cc2)CC1 (stereo in doubt; 7 {1} (2)) |  |  |  |  | 8 nM |  | > 50000 nM |  |  |
| C=CCN1C[C@H](C)N([C@H](c2ccc(C(=O)N(CC)CC)cc2)c2cccc(OC)c2)C[C@H]1C [SNC-80] | 90% | 30.4 µmol/kg | 100% | 7.94 nM |  | 4100 nM |  | 50.1 nM |  |
